Measurements published in patent US11000033B2, “Ketone or oxime compound, and herbicide” (NISSAN CHEMICAL CORPORATION, priority 2014, dated 2021).

Tests used:
Format in all cases: in vivo
Digitaria ciliaris = assay: Test Example 5: herbicidal effect by foliage application, plastic box (symbol F); details: 3 weeks after application
In short: (§1)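 Sowing in sterilized diluvial soil, 14 days' greenhouse growth at 25° C. to 30° C., then uniform small-sprayer foliar application of aqueous emulsion dilution; plants scored three weeks afterwards.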

Veronica persica = assay: Test Example 4: herbicidal effect by soil treatment (symbol R)
In short: (§2)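 Seeds were sown in sterilized diluvial soil, covered with about 1.5 cm of soil, and the soil surface was sprayed with a water-diluted emulsion of the compound at a predetermined rate. Plants grew in a greenhouse at 25° C. to 30° C.; effects were scored visually 3 weeks after application.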

Alopecurus myosuroides [1] = assay: Test Example 4: herbicidal effect by soil treatment (symbol J)
In short: as §2

Scirpus juncoides = assay: Test Example 2: herbicidal activity, application during weed generation in submerged conditions (symbol B); details: Table 23, grade 0-5 by criteria of Test Example 1
In short: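 Each pot contained alluvial soil under 4 cm of water with seeds of all three weeds sown together. Following growth at 25° C. to 30° C. to the one- to two-leaf stage, the floodwater received diluted emulsion at a predetermined amount; visual assessment followed at 3 weeks.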

wheat [2] = assay: Test Example 5: effect on crop by foliage application, plastic box (symbol e); details: 3 weeks after application
In short: (§3)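 A greenhouse held between 25° C. and 30° C. was used to grow plants sown spot-wise, beneath ~1.5 cm of soil, in boxes of sterilized diluvial soil.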

Avena fatua = assay: Test Example 4: herbicidal effect by soil treatment (symbol I)
In short: as §2

transplanted rice plant = assay: Test Example 1: effect on crop, application before weed generation in submerged conditions (symbol a)
In short: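 Alluvial soil pots flooded to 4 cm water, sown with Echinochloa oryzacola, Scirpus juncoides and Monochoria vaginalis, then transplanted with 2.5 leaf stage rice seedlings; pre-emergence application. Greenhouse 25° C. to 30° C.; scored 0–5 by herbicidal ratio 3 weeks after application.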

corn = assay: Test Example 5: effect on crop by foliage application, plastic box (symbol c); details: 3 weeks after application
In short: as §3

Lolium multiflorum Lam. = assay: Test Example 5: herbicidal effect by foliage application, plastic box (symbol K); details: 3 weeks after application
In short: as §1

Leptochloa chinensis = assay: Test Example 3: herbicidal effect by foliage application, Wagner pot (symbol D); details: for D (Leptochloa chinensis) herbicidal effect grade: Table 24
In short: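 Seeds sown in alluvial soil kept under 0.1–0.5 cm water, greenhouse 25–30 °C; 14 d growth. Leaves treated by small sprayer with water-diluted emulsion at a predetermined rate. Effect graded by set scale, 3 weeks.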

wheat [3] = assay: Test Example 4: effect on crop by soil treatment (symbol e)
In short: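 The test used sterilized diluvial soil. Seed was set down in spots and overlaid with about 1.5 cm of soil before growth in a greenhouse kept at 25° C. to 30° C.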

soybean = assay: Test Example 5: effect on crop by foliage application, plastic box (symbol d); details: 3 weeks after application
In short: as §3

Alopecurus myosuroides [4] = assay: Test Example 5: herbicidal effect by foliage application, plastic box (symbol J); details: 3 weeks after application
In short: as §1

[5] = application herbicide amount 320 g/ha
[6] = application herbicide amount 192 g/ha

Compound | F: Digitaria ciliaris, herbicidal effect grade (Digitaria ciliaris; 320 g/ha) | Herbicidal effect grade, B: Scirpus juncoides (Scirpus juncoides; [5]) | e: wheat, effect on crop grade (wheat [2]; 320 g/ha) | a (transplanted rice plant) effect on crop grade (transplanted rice plant; [5]) | c: corn, effect on crop grade (corn; 320 g/ha) | K: Lolium multiflorum Lam., herbicidal effect grade (Lolium multiflorum Lam.; 320 g/ha) | D (Leptochloa chinensis) herbicidal effect grade (Leptochloa chinensis; [5]) | d: soybean, effect on crop grade (soybean; 320 g/ha) | F: Digitaria ciliaris, herbicidal effect (criteria 0-5) (Digitaria ciliaris; 320 g/ha) | R: Veronica persica, herbicidal effect grade (Veronica persica; 320 g/ha) | J: Alopecurus myosuroides, herbicidal effect grade (Alopecurus myosuroides [1]; 320 g/ha) | e: wheat, effect on crop (criteria 0-5) (wheat [2]; 320 g/ha) | I: Avena fatua, herbicidal effect grade (Avena fatua; 320 g/ha) | Effect grade on crop, a: transplanted rice plant (transplanted rice plant; [5]) | c: corn, effect on crop (criteria 0-5) (corn; 320 g/ha) | K: Lolium multiflorum Lam., herbicidal effect (criteria 0-5) (Lolium multiflorum Lam.; 320 g/ha) | herbicidal effect on D (Leptochloa chinensis), grade 0-5 (Leptochloa chinensis; [5]) | e: wheat, effect grade on crop (wheat [3]; 320 g/ha) | d: soybean, effect on crop (criteria 0-5) (soybean; 320 g/ha) | J: Alopecurus myosuroides, herbicidal effect (criteria 0-5) (Alopecurus myosuroides [4]; 320 g/ha) | also measured
CON=C(CC1CC(OC(=O)C(C)(C)C)=C(c2c(C)cc(C)cc2OC)C1=O)C1CC1 (mixture of isomers) [13-006] | 5 (Herbicidal ratio of 90% or more (almost completely withered)) | 3 (Herbicidal ratio of 40% or higher and lower than 70%) | 5 (Herbicidal ratio of 90% or more (almost completely withered)) | 5 (Herbicidal ratio of 90% or more (almost completely withered)) | 5 (Herbicidal ratio of 90% or more (almost completely withered)) | 5 (Herbicidal ratio of 90% or more (almost completely withered)) | 5 (Herbicidal ratio of 90% or more (almost completely withered)) | 2 (Herbicidal ratio of 20% or higher and lower than 40%) | – | – | – | – | – | – | – | – | – | – | – | – | R: Veronica persica, herbicidal effect grade (Veronica persica; [5]): 0 (Herbicidal ratio of 5% or lower (almost no effect)); J: Alopecurus myosuroides, herbicidal effect grade (Alopecurus myosuroides [1]; [5]): 5 (Herbicidal ratio of 90% or more (almost completely withered)); I: Avena fatua, herbicidal effect grade (Avena fatua; [5]): 0 (Herbicidal ratio of 5% or lower (almost no effect)); e: wheat, effect on crop grade (wheat [3]; [5]): 4 (Herbicidal ratio of 70% or higher and lower than 90%); J: Alopecurus myosuroides, herbicidal effect grade (Alopecurus myosuroides [4]; 320 g/ha): 5 (Herbicidal ratio of 90% or more (almost completely withered))
Cc1cc(Br)cc(C)c1C1=C(O)CC(CC(=O)C2CC2)C1=O (racemic) [10-004] | 5 (Herbicidal ratio of 90% or more (almost completely withered)) | 0 (Herbicidal ratio of 5% or lower (almost no effect)) | 4 (Herbicidal ratio of 70% or higher and lower than 90%) | 5 (Herbicidal ratio of 90% or more (almost completely withered)) | 5 (Herbicidal ratio of 90% or more (almost completely withered)) | 5 (Herbicidal ratio of 90% or more (almost completely withered)) | 5 (Herbicidal ratio of 90% or more (almost completely withered)) | 0 (Herbicidal ratio of 5% or lower (almost no effect)) | – | – | – | – | – | – | – | – | – | – | – | – | Herbicidal effect grade, R: Veronica persica (Veronica persica; [5]): 0 (Herbicidal ratio of 5% or lower (almost no effect)); Herbicidal effect grade, J: Alopecurus myosuroides (Alopecurus myosuroides [1]; [5]): 5 (Herbicidal ratio of 90% or more (almost completely withered)); Herbicidal effect grade, I: Avena fatua (Avena fatua; [5]): 3 (Herbicidal ratio of 40% or higher and lower than 70%); Effect on crop grade, e: wheat (wheat [3]; [5]): 0 (Herbicidal ratio of 5% or lower (almost no effect)); J: Alopecurus myosuroides, herbicidal effect grade (Alopecurus myosuroides [4]; 320 g/ha): 5 (Herbicidal ratio of 90% or more (almost completely withered))
CON=C(C)CC1CC(OC(=O)C2CCCO2)=C(c2c(C)cc(C)cc2C)C1=O (stereo not drawn) [1-076] | – | – | – | – | – | – | – | – | – | – | – | – | – | – | – | – | – | – | – | – | F: Digitaria ciliaris, herbicidal effect (criteria 0-5) (Digitaria ciliaris; 192 g/ha): 5 (Herbicidal ratio of 90% or more (almost completely withered)); R: Veronica persica, herbicidal effect grade (Veronica persica; 192 g/ha): 0 (Herbicidal ratio of 5% or lower (almost no effect)); J: Alopecurus myosuroides, herbicidal effect grade (Alopecurus myosuroides [1]; 192 g/ha): 4 (Herbicidal ratio of 70% or higher and lower than 90%); Herbicidal effect grade, B: Scirpus juncoides (Scirpus juncoides; [6]): 4 (Herbicidal ratio of 70% or higher and lower than 90%); e: wheat, effect on crop (criteria 0-5) (wheat [2]; 192 g/ha): 5 (Herbicidal ratio of 90% or more (almost completely withered)); I: Avena fatua, herbicidal effect grade (Avena fatua; 192 g/ha): 4 (Herbicidal ratio of 70% or higher and lower than 90%); Effect grade on crop, a: transplanted rice plant (transplanted rice plant; [6]): 5 (Herbicidal ratio of 90% or more (almost completely withered)); c: corn, effect on crop (criteria 0-5) (corn; 192 g/ha): 4 (Herbicidal ratio of 70% or higher and lower than 90%); K: Lolium multiflorum Lam., herbicidal effect (criteria 0-5) (Lolium multiflorum Lam.; 192 g/ha): 5 (Herbicidal ratio of 90% or more (almost completely withered)); herbicidal effect on D (Leptochloa chinensis), grade 0-5 (Leptochloa chinensis; [6]): 5 (Herbicidal ratio of 90% or more (almost completely withered)); e: wheat, effect grade on crop (wheat [3]; 192 g/ha): 4 (Herbicidal ratio of 70% or higher and lower than 90%); d: soybean, effect on crop (criteria 0-5) (soybean; 192 g/ha): 4 (Herbicidal ratio of 70% or higher and lower than 90%); J: Alopecurus myosuroides, herbicidal effect (criteria 0-5) (Alopecurus myosuroides [4]; 192 g/ha): 5 (Herbicidal ratio of 90% or more (almost completely withered))
CON=C(C)CC1CC(OC(=O)C#C[Si](C)(C)C)=C(c2c(C)cc(C)cc2C)C1=O (stereo not drawn) [1-096] | – | 5 (Herbicidal ratio of 90% or more (almost completely withered)) | – | – | – | – | – | – | 5 (Herbicidal ratio of 90% or more (almost completely withered)) | 0 (Herbicidal ratio of 5% or lower (almost no effect)) | 5 (Herbicidal ratio of 90% or more (almost completely withered)) | 5 (Herbicidal ratio of 90% or more (almost completely withered)) | 3 (Herbicidal ratio of 40% or higher and lower than 70%) | 5 (Herbicidal ratio of 90% or more (almost completely withered)) | 5 (Herbicidal ratio of 90% or more (almost completely withered)) | 5 (Herbicidal ratio of 90% or more (almost completely withered)) | 5 (Herbicidal ratio of 90% or more (almost completely withered)) | 3 (Herbicidal ratio of 40% or higher and lower than 70%) | 3 (Herbicidal ratio of 40% or higher and lower than 70%) | 5 (Herbicidal ratio of 90% or more (almost completely withered)) | –
CON=C(C)CC1CC(OC(=O)c2cc(C)on2)=C(c2c(C)cc(C)cc2C)C1=O (stereo not drawn) [1-100] | – | 5 (Herbicidal ratio of 90% or more (almost completely withered)) | – | – | – | – | – | – | 5 (Herbicidal ratio of 90% or more (almost completely withered)) | 1 (Herbicidal ratio of 5% or higher and lower than 20%) | 5 (Herbicidal ratio of 90% or more (almost completely withered)) | 5 (Herbicidal ratio of 90% or more (almost completely withered)) | 3 (Herbicidal ratio of 40% or higher and lower than 70%) | 5 (Herbicidal ratio of 90% or more (almost completely withered)) | 5 (Herbicidal ratio of 90% or more (almost completely withered)) | 5 (Herbicidal ratio of 90% or more (almost completely withered)) | 5 (Herbicidal ratio of 90% or more (almost completely withered)) | 5 (Herbicidal ratio of 90% or more (almost completely withered)) | 3 (Herbicidal ratio of 40% or higher and lower than 70%) | 5 (Herbicidal ratio of 90% or more (almost completely withered)) | –
CON=C(C)CC1CC(OC(=O)c2cnoc2C2CC2)=C(c2c(C)cc(C)cc2C)C1=O (stereo not drawn) [1-103] | – | 4 (Herbicidal ratio of 70% or higher and lower than 90%) | – | – | – | – | – | – | 5 (Herbicidal ratio of 90% or more (almost completely withered)) | 0 (Herbicidal ratio of 5% or lower (almost no effect)) | 5 (Herbicidal ratio of 90% or more (almost completely withered)) | 5 (Herbicidal ratio of 90% or more (almost completely withered)) | 3 (Herbicidal ratio of 40% or higher and lower than 70%) | 5 (Herbicidal ratio of 90% or more (almost completely withered)) | 5 (Herbicidal ratio of 90% or more (almost completely withered)) | 5 (Herbicidal ratio of 90% or more (almost completely withered)) | 5 (Herbicidal ratio of 90% or more (almost completely withered)) | 4 (Herbicidal ratio of 70% or higher and lower than 90%) | 3 (Herbicidal ratio of 40% or higher and lower than 70%) | 5 (Herbicidal ratio of 90% or more (almost completely withered)) | –
